The term NOAEL denotes the highest tested level that showed no adverse finding. One may read the LC50 as the concentration that kills 50% of the test population.

This note sets out measurements from EPA's ToxValDB 9.5 (doi:10.2903/j.efsa.2018.5252).

One series relates to Canidae. The settings on record: subchronic; duration: 90 days; oral; M/F; Dog Other; body weight.
The next series has as its system Cyprinus carpio. The settings on record: acute; duration: 96 hours; mortality.
For the next series, the system named is Apis mellifera. The settings on record: acute, mortality.
For the next series, the system named is Oryctolagus sp. The settings on record: reproduction developmental; body weight.
The next series relates to Tagia sp. The settings on record: chronic/long-term; growth.
In another series the test system is Pimephales promelas. The settings on record: chronic/long-term; duration: 110 days; reproduction.
Another series has as its system Bibionidae. The settings on record: chronic/long-term.
The test system of a further series is Aphidius rhopalosiphi. Put plainly: LR50; higher = less toxic. Conditions: not reported; mortality.

A value given as a limit tells only on which side of the number the result lay.

As for `CC[C@H]1CCC[C@H](O[C@H]2CC[C@H](N(C)C)[C@@H](C)O2)[C@@H](C)C(=O)C2=C[C@@H]3[C@@H](C=C(C)[C@@H]4C[C@@H](O[C@@H]5O[C@@H](C)[C@H](OC)[C@@H](OC)[C@H]5OC)C[C@@H]34)[C@@H]2CC(=O)O1.CC[C@H]1CCC[C@H](O[C@H]2CC[C@H](N(C)C)[C@@H](C)O2)[C@@H](C)C(=O)C2=C[C@@H]3[C@@H](C=C[C@@H]4C[C@@H](O[C@@H]5O[C@@H](C)[C@H](OC)[C@@H](OC)[C@H]5OC)C[C@@H]34)[C@@H]2CC(=O)O1` [Spinosad], the no observed adverse effect level (NOAEL) in the series on Canidae was 4.89 mg/kg-day; in the series on Rattus norvegicus (chronic, duration: 2 years, oral, diet, M, Fischer 344, organ weight), 2.4 mg/kg-day; with Rattus norvegicus (reproduction developmental, M/F, reproduction) it was 10 mg/kg-day; with Oryctolagus sp., 10 mg/kg-day; with Colinus virginianus (chronic) it was 68.5 mg/kg-day; in the series with Anas platyrhynchos (chronic/long-term) it was 78.1 mg/kg-day. The compound also showed an LC50 in the series with Cyprinus carpio of 4 µg/mL. Further, the LD50 with Apis mellifera (dermal) is 0.0036 µg/piece; in the series with Apis mellifera (oral, unspecified) it was 0.057 µg/piece; in the series with Rattus norvegicus (acute, oral, mortality) it was above 2000 mg/kg-day; in the series with Colinus virginianus (acute, oral, mortality), above 2000 mg/kg-day; with Anas platyrhynchos (acute, oral, unspecified, mortality), above 2000 mg/kg-day. The LEL with Colinus virginianus (chronic, mortality) turned out to be 200 mg/kg-day; in the series on Anas platyrhynchos (chronic/long-term, mortality), 200 mg/kg-day. For the same compound, the NOEC in the series on Tagia sp. came to 35.2 mg/kg; in the series with Pimephales promelas, 0.217 mg/L; in the series on Bibionidae (duration: 25 days) it was 0.62 µg/L; in the series on Bibionidae (duration: 28 days) it was 0.0585 mg/kg. For the same compound, the LR50 with Aphidius rhopalosiphi is 0.371 g/ha.
